According to the NIST ThermoML archive (doi:10.1021/acs.jced.9b00078):

Details: Liquid, Other PVT measurement

CCCCCCCCCCCCCCCC [hexadecane]
mass density [kg/m3]
Details	10000 kPa	20000 kPa	30000 kPa	40000 kPa	50000 kPa
298.2 K	775.86	782.89	788.75	793.81	799.18
303.2 K	773.66	779.38	785.01	790.38	795.64
313.2 K	764.59	773.09	778.81	784.36	789.46
323.2 K	759.8	766.48	773.19	778.83	784.38
333.2 K	753.38	760.44	767.3	773.53	779.1
348.2 K	744.11	751.32	758.67	765.1	770.98
353.2 K	740.03	748.27	755.72	762.19	768.11
373.2 K	727.81	736.02	744.18	751.02	757.42
393.2 K	713.25	723.64	732.3	739.4	746.41
413.2 K	700.27	711.23	720.49	728.42	735.85
423.2 K	694.3	705.01	714.62	722.88	730.73
433.2 K	687.01	698.74	708.69	717.4	725.14
453.2 K	674.02	686.53	696.77	706.13	714.59
463.2 K	669.34	680.32	690.8	700.49	709.18
473.2 K	660.45	673.95	685.23	695.19	704.05
